Literature values, collected in patent US20050118594A1, “Enzymes” (priority 2001, published 2005).

[1] = mild hypertriglyceridemia (e.g., triglycerides <400 mg/dl)

| SMILES | lowering of VLDL levels (second generation agents, compared with gemfibrozil) | decrease in triglyceride levels [1] [%] | increase in HDL cholesterol concentrations [1] | change in LDL cholesterol levels (mild hypertriglyceridemia, particularly in subjects with familial combined hyperlipidemia) | decrease in LDL levels (patients with heterozygous familial hypercholesterolemia) [%] |
| --- | --- | --- | --- | --- | --- |
| CC(C)(Oc1ccc(C2CC2(Cl)Cl)cc1)C(=O)O (centres unmarked) [ciprofibrate] | to a degree similar to that produced by gemfibrozil |  |  |  |  |
| Cc1ccc(C)c(OCCCC(C)(C)C(=O)O)c1 [gemfibrozil] |  | ≥ 50 | 15-25% | either no change or an increase | 10 |
